From patent US7767659B2, “Synthesis of naturally occurring ecteinascidins and related compounds” (Pharma Mar, S.A., priority 2002, dated 2010)

Key:
HT-29 = experiment: cells; details: Homo sapiens, HT-29, 48 h; for GI50: read-out: HT29 GI50; for CC50: read-out: HT29 LC50; for IC (TGI): read-out: HT29 TGI
Outline: (§1)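 Colorimetric SRB read (490 nm) on triplicate wells after 48 h at 37 °C, 5% CO2. Dose range 10 to 10^−8 μg/ml; 5×10^3 cells/well pre-attached 18 h.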

A-549 = experiment: cells; details: Homo sapiens, A549, 48 h; for GI50: read-out: A549 GI50; for CC50: read-out: A549 LC50; for IC (TGI): read-out: A549 TGI
Outline: as §1

LoVo = experiment: cells; details: Homo sapiens, LoVo, 48 h; for GI50: read-out: LOVO GI50; for CC50: read-out: LOVO LC50; for IC (TGI): read-out: LOVO TGI
Outline: as §1

DU-145 = experiment: Inhibition of cells growth by colorimetric assay (SRB); details: Homo sapiens, DU-145, 48 h; for GI50: read-out: DU145 GI50; for CC50: read-out: DU145 LC50; for IC (TGI): read-out: DU145 TGI
Outline: as §1

LoVo-Dox = experiment: as above; details: Homo sapiens, 48 h; for GI50: read-out: LOVO-DOX GI50; for CC50: read-out: LOVO-DOX LC50; for IC (TGI): read-out: LOVO-DOX TGI
Outline: as §1

SK-BR-3 = experiment: as above; details: Homo sapiens, SK-BR-3, 48 h; for GI50: read-out: SK-BR3 GI50; for CC50: read-out: SK-BR3 LC50; for IC (TGI): read-out: SK-BR3 TGI
Outline: as §1

HeLa = experiment: as above; details: Homo sapiens, HeLa, 48 h; for GI50: read-out: HELA GI50; for CC50: read-out: HELA LC50; for IC (TGI): read-out: HELA TGI
Outline: as §1

HeLa-APL = experiment: as above; details: Homo sapiens, 48 h; for GI50: read-out: HELA-APL GI50; for CC50: read-out: HELA-APL LC50; for IC (TGI): read-out: HELA-APL TGI
Outline: as §1

K-562 = experiment: as above; details: Homo sapiens, K562, 48 h; for GI50: read-out: K562 GI50; for CC50: read-out: K562 LC50; for IC (TGI): read-out: K562 TGI
Outline: as §1

LNCaP = experiment: as above; details: Homo sapiens, LNCaP, 48 h; for GI50: read-out: LNCAP GI50; for CC50: read-out: LNCAP LC50; for IC (TGI): read-out: LNCAP TGI
Outline: as §1

SK-MEL-28 = experiment: as above; details: Homo sapiens, SK-MEL-28, 48 h; for GI50: read-out: MEL-28 GI50; for CC50: read-out: MEL-28 LC50; for IC (TGI): read-out: MEL-28 TGI
Outline: as §1

PANC-1 = experiment: as above; details: Homo sapiens, PANC-1, 48 h; for GI50: read-out: PANC-1 GI50; for CC50: read-out: PANC-1 LC50; for IC (TGI): read-out: PANC-1 TGI
Outline: as §1

IGROV-ET = experiment: as above; details: Homo sapiens, 48 h; for GI50: read-out: IGROV-ET GI50; for CC50: read-out: IGROV-ET LC50; for IC (TGI): read-out: IGROV-ET TGI
Outline: as §1

IGROV-1 = experiment: as above; details: Homo sapiens, IGROV-1, 48 h; for GI50: read-out: IGROV GI50; for CC50: read-out: IGROV LC50; for IC (TGI): read-out: IGROV TGI
Outline: as §1

For `COc1c(C)cc2c(c1O)[C@H]1N[C@@H](C2)[C@H](O)N2C1[C@@H]1SC[C@]3(NCCc4c3[nH]c3ccccc43)C(=O)OC[C@H]2c2c3c(c(C)c(OC(C)=O)c21)OCO3` (stereo partly drawn) [compound 63], the GI50 (HT-29) was 9.17 nM, the CC50 (HT-29) was 13500 nM and the IC (TGI) (HT-29) was 327 nM. It also gave a GI50 (A-549) of 24 nM, a CC50 (A-549) of 273 nM and an IC (TGI) (A-549) of 61.4 nM. For the same compound, the GI50 (LoVo) was 8.63 nM, the CC50 (LoVo) was 13500 nM and the IC (TGI) (LoVo) was 54.8 nM. The GI50 (DU-145) was 3.48 nM, the CC50 (DU-145) was 4400 nM and the IC (TGI) (DU-145) was 7.24 nM. The GI50 (LoVo-Dox) was 398 nM, the CC50 (LoVo-Dox) was 13500 nM and the IC (TGI) (LoVo-Dox) was 1090 nM. For the same compound, the GI50 (SK-BR-3) was 3.93 nM, the CC50 (SK-BR-3) was 198 nM and the IC (TGI) (SK-BR-3) was 8.98 nM. For the same compound, the GI50 (HeLa) was 3.16 nM, the CC50 (HeLa) was 12.5 nM and the IC (TGI) (HeLa) was 6.29 nM. The GI50 (HeLa-APL) was 11 nM, the CC50 (HeLa-APL) was 150 nM and the IC (TGI) (HeLa-APL) was 39.8 nM. For the same compound, the GI50 (K-562) was 3.86 nM, the CC50 (K-562) was 634 nM and the IC (TGI) (K-562) was 7.92 nM. The GI50 (LNCaP) was 2.86 nM, the CC50 (LNCaP) was 10 nM and the IC (TGI) (LNCaP) was 5.36 nM. The GI50 (SK-MEL-28) was 5.64 nM, the CC50 (SK-MEL-28) was 52.6 nM and the IC (TGI) (SK-MEL-28) was 17 nM. The GI50 (PANC-1) was 4.6 nM, the CC50 (PANC-1) was 4270 nM and the IC (TGI) (PANC-1) was 17.4 nM. It also gave a GI50 (IGROV-ET) of 75.9 nM, a CC50 (IGROV-ET) of 13300 nM and an IC (TGI) (IGROV-ET) of 537 nM. The GI50 (IGROV-1) was 5.4 nM, the CC50 (IGROV-1) was 4.49 nM and the IC (TGI) (IGROV-1) was 15 nM.
In the case of `CCCCCCCC(=O)Oc1c(C)c2c(c3c1[C@H]1SC[C@]4(NCCc5cc(O)c(OC)cc54)C(=O)OC[C@@H]3N3C1[C@@H]1N[C@@H](Cc4cc(C)c(OC)c(O)c41)[C@@H]3C#N)OCO2` (stereo partly drawn) [compound 52], the GI50 (HT-29) is reported as 6.14 nM, the CC50 (HT-29) is reported as 7780 nM and the IC (TGI) (HT-29) is reported as 1250 nM. It also gave a GI50 (A-549) of 8.01 nM, a CC50 (A-549) of 973 nM and an IC (TGI) (A-549) of 57.8 nM. For the same compound, the GI50 (LoVo) was 9.17 nM, the CC50 (LoVo) was 85.7 nM and the IC (TGI) (LoVo) was 29.6 nM. For the same compound, the GI50 (DU-145) was 4.92 nM, the CC50 (DU-145) was 5140 nM and the IC (TGI) (DU-145) was 19.3 nM. It also gave a GI50 (LoVo-Dox) of 273 nM, a CC50 (LoVo-Dox) of 11900 nM and an IC (TGI) (LoVo-Dox) of 11900 nM. It also gave a GI50 (SK-BR-3) of 6.18 nM, a CC50 (SK-BR-3) of 11900 nM and an IC (TGI) (SK-BR-3) of 258 nM. For the same compound, the GI50 (HeLa) was 5.98 nM, the CC50 (HeLa) was 1850 nM and the IC (TGI) (HeLa) was 22.5 nM. The GI50 (HeLa-APL) was 7.05 nM, the CC50 (HeLa-APL) was 92.3 nM and the IC (TGI) (HeLa-APL) was 21.4 nM. The GI50 (K-562) was 4.51 nM, the CC50 (K-562) was 80.6 nM and the IC (TGI) (K-562) was 21.3 nM. It also gave a GI50 (LNCaP) of 2.39 nM, a CC50 (LNCaP) of 9.06 nM and an IC (TGI) (LNCaP) of 4.66 nM. It also gave a GI50 (SK-MEL-28) of 4.07 nM, a CC50 (SK-MEL-28) of 52.7 nM and an IC (TGI) (SK-MEL-28) of 15.5 nM. It also gave a GI50 (PANC-1) of 21.5 nM, a CC50 (PANC-1) of 610 nM and an IC (TGI) (PANC-1) of 62.4 nM. For the same compound, the GI50 (IGROV-ET) was 39.5 nM, the CC50 (IGROV-ET) was 8530 nM and the IC (TGI) (IGROV-ET) was 119 nM. For the same compound, the GI50 (IGROV-1) was 7.32 nM, the CC50 (IGROV-1) was 3060 nM and the IC (TGI) (IGROV-1) was 43.3 nM.
Compound `C=CCN1[C@@H]2c3c(cc(C)c(OC)c3OC(=O)OC(C)(C)C)C[C@H]1[C@H](C#N)N1C2[C@@H]2SC[C@]3(NCCc4cc(OC(=O)OC(C)(C)C)c(OC)cc43)C(=O)OC[C@H]1c1c3c(c(C)c(OC(C)=O)c12)OCO3` (stereo partly drawn) [compound 45] has a GI50 (HT-29) of 83.6 nM, a CC50 (HT-29) of 10000 nM and an IC (TGI) (HT-29) of 1410 nM. For the same compound, the GI50 (A-549) was 162 nM, the CC50 (A-549) was 1500 nM and the IC (TGI) (A-549) was 413 nM. It also gave a GI50 (LoVo) of 130 nM, a CC50 (LoVo) of 614 nM and an IC (TGI) (LoVo) of 283 nM. It also gave a GI50 (DU-145) of 35.9 nM, a CC50 (DU-145) of 10000 nM and an IC (TGI) (DU-145) of 103 nM. For the same compound, the GI50 (LoVo-Dox) was 479 nM, the CC50 (LoVo-Dox) was 10000 nM and the IC (TGI) (LoVo-Dox) was 3140 nM. For the same compound, the GI50 (SK-BR-3) was 2.83 nM, the CC50 (SK-BR-3) was 133 nM and the IC (TGI) (SK-BR-3) was 7.56 nM. For the same compound, the GI50 (HeLa) was 16.4 nM, the CC50 (HeLa) was 79.7 nM and the IC (TGI) (HeLa) was 36.2 nM. The GI50 (HeLa-APL) was 28.4 nM, the CC50 (HeLa-APL) was 783 nM and the IC (TGI) (HeLa-APL) was 121 nM. For the same compound, the GI50 (K-562) was 17.6 nM, the CC50 (K-562) was 10000 nM and the IC (TGI) (K-562) was 150 nM. For the same compound, the GI50 (LNCaP) was 3.83 nM, the CC50 (LNCaP) was 51.5 nM and the IC (TGI) (LNCaP) was 17.3 nM. The GI50 (SK-MEL-28) was 117 nM, the CC50 (SK-MEL-28) was 689 nM and the IC (TGI) (SK-MEL-28) was 285 nM. The GI50 (PANC-1) was 229 nM, the CC50 (PANC-1) was 10000 nM and the IC (TGI) (PANC-1) was 1240 nM. For the same compound, the GI50 (IGROV-ET) was 86.5 nM, the CC50 (IGROV-ET) was 10000 nM and the IC (TGI) (IGROV-ET) was 497 nM. For the same compound, the GI50 (IGROV-1) was 56.9 nM, the CC50 (IGROV-1) was 10000 nM and the IC (TGI) (IGROV-1) was 392 nM.
